The source of these data is ChEMBL document CHEMBL1201862, “PubChem BioAssay data set” (2004).

Test systems include UO-31; HOP-92; MCF7; DU-145; M14; EKVX; UACC-257; CAKI-1; RPMI-8226; KM12; NCI-H226; SR; MOLT-4; RXF 393; OVCAR-5; LOX IMVI; HCT-116; MDA-MB-435; SK-MEL-2; UACC-62.
Holding throughout (assay): NCI anticancer screen, dose series, 48 h

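Cultured in 96-well plates, cells were exposed to test compound for 48 hours across five concentrations. GI50 is the concentration that inhibits growth by half.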 Activity calls are given as the source filed them. No stated cut-off is given here; in the data, active = GI50 up to about 1.1 µM and inactive = higher. Where only a bound is given, the exact number is not on record here.

As to `CCOC(=O)C1(N)CC1`, the GI50 in the assay on UO-31, with HOP-92, in the assay on MCF7, in the assay on DU-145, in the assay with M14 and in the assay with EKVX was > 100 µM (inactive) each time. In addition, the GI50 with UACC-257, in the assay with CAKI-1, in the assay on RPMI-8226, with KM12, in the assay with NCI-H226 and in the assay on SR was > 100 µM (inactive) each time. For the same compound, the GI50 with MOLT-4, with RXF 393, in the assay on OVCAR-5, in the assay with LOX IMVI, in the assay on HCT-116 and in the assay with MDA-MB-435 was > 100 µM (inactive) in each case.

In the case of `COc1ccc(-c2c3c(n(C4OC(COC(C)=O)C(OC(C)=O)C(OC(C)=O)C4OC(C)=O)c(=S)c2C#N)CCC3)cc1` (configuration not stated), the GI50 was 81.3 µM (inactive) in the assay with UO-31; 6.82 µM (inactive) with HOP-92; > 100 µM (inactive) with SK-MEL-2; > 100 µM (inactive) in the assay with MCF7; > 100 µM (inactive) in the assay on DU-145; > 100 µM (inactive) in the assay on M14. Also, the GI50 in the assay on UACC-62, in the assay on UACC-257, with CAKI-1, in the assay on RPMI-8226, in the assay with KM12 and in the assay on SR was > 100 µM (inactive) each time. For the same compound, the GI50 was > 100 µM (inactive) in the assay on MOLT-4; 92.3 µM (inactive) with RXF 393; > 100 µM (inactive) in the assay with OVCAR-5; > 100 µM (inactive) with LOX IMVI; > 100 µM (inactive) in the assay on HCT-116; > 100 µM (inactive) with MDA-MB-435.

Consider `CCc1cc2c(oc3c4ccccc4ccc23)c(=O)[nH]1`, for which the GI50 with UO-31, in the assay with HOP-92, in the assay with MCF7, in the assay with DU-145, in the assay on M14 and in the assay on UACC-62 was > 10 µM (inactive) in each case. In addition, the GI50 in the assay with EKVX, with UACC-257, with KM12, in the assay on NCI-H226, with SR and in the assay on MOLT-4 was > 10 µM (inactive) throughout. Further, the GI50 in the assay on RXF 393, in the assay with OVCAR-5, in the assay with LOX IMVI, in the assay on HCT-116 and with MDA-MB-435 was > 10 µM (inactive) throughout.

For `O=C1C(NCCN2CCOCC2)=C(Cl)C(=O)c2ncccc21`, the GI50 in the assay on UO-31 is 1.12 µM (active); in the assay with HOP-92, 2.08 µM (inactive); in the assay on SK-MEL-2, 0.226 µM (active); in the assay with MCF7 it was 0.326 µM (active); with DU-145 it was 1.01 µM (active); in the assay with M14 it was 0.469 µM (active). Also, the GI50 in the assay on UACC-62 is 0.618 µM (active); in the assay with EKVX, 1.48 µM (inactive); in the assay with RPMI-8226, 0.1 µM (active); in the assay with KM12, 1.34 µM (inactive); in the assay with NCI-H226 it was 1.69 µM (inactive); with SR it was 1.32 µM (inactive). The GI50 is 2.15 µM (inactive) in the assay on MOLT-4; 0.327 µM (active) in the assay with RXF 393; 1.7 µM (inactive) in the assay on OVCAR-5; 0.168 µM (active) in the assay on LOX IMVI; 0.348 µM (active) with HCT-116; 0.182 µM (active) with MDA-MB-435.

Turning to `C/C=C(/C)C(=O)O[C@H](C[C@@H](C)[C@H]1CC(c2ccoc2)OC1=O)[C@@]1(C)C(=O)CCC2O[C@]21C` (some centres not stated), the GI50 in the assay with UO-31, with SK-MEL-2, with MCF7, in the assay on DU-145, with M14 and in the assay on UACC-62 was > 100 µM (inactive) throughout. In addition, the GI50 in the assay on EKVX, in the assay on UACC-257, with CAKI-1, with RPMI-8226, in the assay on KM12 and with NCI-H226 was > 100 µM (inactive) each time. Besides, the GI50 in the assay with SR, with MOLT-4, in the assay on RXF 393, in the assay with OVCAR-5, in the assay with LOX IMVI and in the assay with HCT-116 was > 100 µM (inactive) each time. Moreover, the GI50 in the assay on MDA-MB-435 is > 100 µM (inactive).

On to `O=S(=O)(/N=S(/Nc1ccccc1)C(F)(F)Cl)c1ccccc1` (configuration not stated), for which the GI50 with UO-31, in the assay with HOP-92, in the assay on SK-MEL-2, in the assay with MCF7, with DU-145 and in the assay with M14 was > 100 µM (inactive) in each case. The GI50 in the assay on UACC-62, in the assay with EKVX, with UACC-257, in the assay on RPMI-8226, in the assay on KM12 and in the assay on NCI-H226 was > 100 µM (inactive) in each case. The GI50 in the assay on SR, in the assay on MOLT-4, in the assay with RXF 393, in the assay with OVCAR-5, in the assay with LOX IMVI and in the assay on HCT-116 was > 100 µM (inactive) throughout. In addition, the GI50 in the assay on MDA-MB-435 was > 100 µM (inactive).

For the compound `CN(C)CCNS(=O)(=O)N(C)C`, the GI50 in the assay on HOP-92, in the assay with SK-MEL-2, in the assay with MCF7, in the assay with DU-145, with M14 and in the assay on UACC-62 was > 100 µM (inactive) throughout. In addition, the GI50 in the assay on EKVX, in the assay with UACC-257, in the assay on CAKI-1, with RPMI-8226, in the assay with KM12 and in the assay on NCI-H226 was > 100 µM (inactive) throughout. Further, the GI50 in the assay on SR, in the assay with MOLT-4, in the assay with RXF 393, in the assay on OVCAR-5, in the assay on LOX IMVI and in the assay on HCT-116 was > 100 µM (inactive) each time. In addition, the GI50 in the assay on MDA-MB-435 is > 100 µM (inactive).

For the compound `COc1ccccc1N1C(=O)/C(=C\c2cccc(Oc3ccccc3)c2)S(=O)(=O)C1c1ccccc1` (configuration not stated), the GI50 with UO-31 is 46.8 µM (inactive); in the assay on HOP-92, 14.5 µM (inactive); in the assay on SK-MEL-2, 21.4 µM (inactive); in the assay on MCF7, 27.4 µM (inactive); with DU-145 it was 55.6 µM (inactive); in the assay with M14, 50 µM (inactive). Besides, the GI50 in the assay with UACC-62 was 17.8 µM (inactive); in the assay on EKVX, 10.5 µM (inactive); in the assay on UACC-257, 21.7 µM (inactive); in the assay on CAKI-1, > 100 µM (inactive); in the assay with KM12, 28.2 µM (inactive); in the assay with NCI-H226, > 100 µM (inactive). The GI50 in the assay on SR was 16.7 µM (inactive); in the assay with MOLT-4, 4.92 µM (inactive); in the assay with RXF 393 it was > 100 µM (inactive); in the assay on OVCAR-5 it was 89.9 µM (inactive); with LOX IMVI it was 40.1 µM (inactive); in the assay with HCT-116, 23.8 µM (inactive). Also, in the assay with MDA-MB-435, the GI50 is 30.8 µM (inactive).

Regarding `Cc1c(O)c(OC2OC(CO)C(O)C(O)C2O)cc2c1C=C[C@@H]1[C@@]2(C)C(=O)C[C@]2(C)[C@@H]([C@@](C)(O)C(=O)CCC(C)(C)O)[C@H](O)C[C@@]12C` (some centres not stated), the GI50 with UO-31 is 20.2 µM (inactive); with HOP-92 it was 18.4 µM (inactive); with SK-MEL-2 it was 26.2 µM (inactive); in the assay on MCF7 it was 33.6 µM (inactive); in the assay on DU-145, 23.7 µM (inactive); in the assay with M14, 26.4 µM (inactive). For the same compound, the GI50 with UACC-62 is 18.1 µM (inactive); with EKVX it was 28.6 µM (inactive); in the assay with UACC-257, 20.9 µM (inactive); with CAKI-1, 20 µM (inactive); with KM12 it was 25.4 µM (inactive); with NCI-H226, 23.3 µM (inactive). The GI50 was 35.9 µM (inactive) with SR; 19.7 µM (inactive) with MOLT-4; 18.6 µM (inactive) in the assay on RXF 393; 25.6 µM (inactive) with OVCAR-5; 22.6 µM (inactive) with LOX IMVI; 18.9 µM (inactive) with HCT-116. The GI50 with MDA-MB-435 is 27.1 µM (inactive).

Consider `N[C@H](C(=O)O)[C@@H]1CC(Br)=NO1`, for which the GI50 was > 100 µM (inactive) in the assay on UO-31; > 100 µM (inactive) with HOP-92; > 100 µM (inactive) in the assay on SK-MEL-2; 41.5 µM (inactive) in the assay on MCF7; > 100 µM (inactive) in the assay on DU-145; 53.5 µM (inactive) with M14. Further, the GI50 in the assay with UACC-62 is 85.5 µM (inactive); in the assay with EKVX, 73.3 µM (inactive); in the assay with UACC-257 it was > 100 µM (inactive); in the assay with CAKI-1, 90.2 µM (inactive); with KM12 it was 75.2 µM (inactive); in the assay on NCI-H226, > 100 µM (inactive). In addition, the GI50 is 44.1 µM (inactive) with SR; 59.3 µM (inactive) with MOLT-4; > 100 µM (inactive) in the assay with RXF 393; 61.4 µM (inactive) with OVCAR-5; 52.4 µM (inactive) with HCT-116; 95.3 µM (inactive) in the assay on MDA-MB-435.

Regarding `Cc1ccc(CC[PH](=O)CCc2ccc(C)nc2)cn1`, the GI50 in the assay on HOP-92, in the assay on MCF7, in the assay on DU-145, in the assay on M14, in the assay on UACC-62 and in the assay on EKVX was > 100 µM (inactive) in each case. Further, the GI50 in the assay on UACC-257, in the assay with CAKI-1, in the assay with RPMI-8226, with KM12, in the assay on NCI-H226 and in the assay on SR was > 100 µM (inactive) in each case. Further, the GI50 in the assay on MOLT-4, in the assay on RXF 393, in the assay with OVCAR-5, in the assay with LOX IMVI, in the assay on HCT-116 and with MDA-MB-435 was > 100 µM (inactive) in each case.
